# Measurements as given in patent publication US20260022142A1, “MACROCYCLIC IMMUNOMODULATORS” (Bristol-Myers Squibb Company, priority 2022, published 2026).
# pIC50: −log10 of the molar value. Bridge positions count the residues as written; N and C are the ends. Square brackets hold non-standard residues; d marks the D form. Peptide text beside a SMILES is read from it. * marks the point of attachment. ξ: configuration not given here. Phe(4-CONH2) = NC(=O)c1ccc(C[C@H](N)C(=O)O)cc1; Phe(4-COOH) = N[C@@H](Cc1ccc(C(=O)O)cc1)C(=O)O; Bip = N[C@@H](Cc1ccc(-c2ccccc2)cc1)C(=O)O; Phe(4-CN) = N#Cc1ccc(C[C@H](N)C(=O)O)cc1; Phe(3-Me) = Cc1cccc(C[C@H](N)C(=O)O)c1; Phe(4-F) = N[C@@H](Cc1ccc(F)cc1)C(=O)O; Val(3-OH) = CC(C)(O)[C@H](N)C(=O)O; 4Pal = N[C@@H](Cc1ccncc1)C(=O)O; Cha = N[C@@H](CC1CCCCC1)C(=O)O; Ile(3ξ) = CCC(C)[C@H](N)C(=O)O; Thr(3ξ) = CC(O)[C@H](N)C(=O)O; Carboxymethyl = O=C(O)C*; Nle = CCCC[C@H](N)C(=O)O; Orn = NCCC[C@H](N)C(=O)O; Aun = NCCCCCCCCCCC(=O)O; Dab = NCC[C@H](N)C(=O)O; Nva = CCC[C@H](N)C(=O)O; Abu = CC[C@H](N)C(=O)O; AEEA = NCCOCCOCC(=O)O
# Target: T1, PD-1/PD-L1 interaction (PE-labeled human PD-L1-Ig binding to Jurkat cell line over-expressing human PD-1) (Homo sapiens, UniProt Q15116)
# T1 construct: expressed in transfected cells; host or cells: Jurkat
# T1 sequence (Q15116 25-288): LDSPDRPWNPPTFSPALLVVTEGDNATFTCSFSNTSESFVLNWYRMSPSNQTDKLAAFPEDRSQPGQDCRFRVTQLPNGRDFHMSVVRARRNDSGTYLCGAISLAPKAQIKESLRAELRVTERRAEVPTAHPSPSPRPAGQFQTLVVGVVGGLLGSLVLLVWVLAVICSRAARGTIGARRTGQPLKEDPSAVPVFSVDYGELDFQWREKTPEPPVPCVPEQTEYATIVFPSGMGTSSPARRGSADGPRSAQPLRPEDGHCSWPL
# Assay: Jurkat-PD-1 Cell Binding High-Content Screening Assay (CBA)
# Assay type: cell-based
# Conditions: Jurkat cell line over-expressing human PD-1; PE-labeled PD-L1-Ig 20 nM final; read-out: Jurkat hPD1-PDL1 IC50
# Summary of the method: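 Human PD-L1-Ig carrying a covalent PE label on its Ig tag serves as the probe, applied at 20 nM final to compound-treated (2 h, 37° C) Jurkat-hPD-1 cells in medium with 10% fetal calf serum. After one hour, fixation and nuclear staining precede high-content image analysis.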
row,SMILES,pIC50
1,Cc1cccc(C[C@@H]2NC(=O)[C@H](CC(=O)O)NC(=O)[C@H](Cc3ccc(C(=O)O)cc3)NC(=O)[C@H](Cc3ccncc3)NC(=O)CSC[C@@H](C(=O)N[C@@H](CCN)C(=O)NCCOCCOCC(=O)NCCCCCCCCCCC(=O)O)NC(=O)[C@H](CO)NC(=O)[C@H](C(C)(C)O)NC(=O)[C@H](CC3CCCCC3)NC(=O)[C@H](CCN)NC(=O)[C@@H](CC(C)C)NC(=O)[C@H](CCCN)NC(=O)[C@H](CCC(N)=O)NC(=O)[C@H](Cc3ccc(-c4ccccc4)cc3)NC(=O)[C@H](Cc3ccc(C(N)=O)cc3)NC2=O)c1 [Compound 3778] ({CH2CO}-[4Pal][Phe(4-COOH)]D[Phe(3-Me)][Phe(4-CONH2)][Bip]Q[Orn][dL][Dab][Cha][Val(3-OH)]SC[Dab][AEEA][Aun]-OH; thioether N-14),7.58
2,Cc1cccc(C[C@@H]2NC(=O)[C@H](CC(=O)O)NC(=O)[C@H](Cc3ccc(OCC(=O)O)cc3)NC(=O)[C@H](Cc3ccc(F)cc3)NC(=O)CSC[C@@H](C(=O)N[C@@H](CCN)C(=O)NCCCCCCCCCCC(=O)O)NC(=O)[C@H](Cc3cnc[nH]3)NC(=O)[C@H](C(C)(C)O)NC(=O)[C@H](CC3CCCCC3)NC(=O)[C@H](CCN)NC(=O)[C@@H](CC(C)C)NC(=O)[C@H](CCCN)NC(=O)[C@H](Cc3ccc(OCC(=O)O)cc3)NC(=O)[C@H](Cc3ccc(-c4ccccc4)cc3)NC(=O)[C@H](Cc3ccc(OCC(=O)O)cc3)NC2=O)c1 [Compound 3798] ({CH2CO}-[Phe(4-F)]Y(Carboxymethyl)D[Phe(3-Me)]Y(Carboxymethyl)[Bip]Y(Carboxymethyl)[Orn][dL][Dab][Cha][Val(3-OH)]HC[Dab][Aun]-OH; thioether N-14),7.55
3,Cc1cccc(C[C@@H]2NC(=O)[C@H](CC(=O)O)NC(=O)[C@H](Cc3ccc(OCC(=O)O)cc3)NC(=O)[C@H](Cc3ccc(F)cc3)NC(=O)CSC[C@@H](C(=O)N[C@@H](CCN)C(=O)NCCOCCOCC(=O)NCCCCCCCCCCC(=O)O)NC(=O)[C@H](CC(=O)O)NC(=O)[C@H](C(C)C)NC(=O)[C@H](CC3CCCCC3)NC(=O)[C@H](CCN)NC(=O)[C@@H](CC(C)C)NC(=O)[C@H](CCCN)NC(=O)[C@H](Cc3ccc(OCC(=O)O)cc3)NC(=O)[C@H](Cc3ccc(-c4ccccc4)cc3)NC(=O)[C@H](Cc3ccc(OCC(=O)O)cc3)NC2=O)c1 [Compound 3799] ({CH2CO}-[Phe(4-F)]Y(Carboxymethyl)D[Phe(3-Me)]Y(Carboxymethyl)[Bip]Y(Carboxymethyl)[Orn][dL][Dab][Cha]VDC[Dab][AEEA][Aun]-OH; thioether N-14),7.95
4,Cc1cccc(C[C@@H]2NC(=O)[C@H](CC(=O)O)NC(=O)[C@H](Cc3ccc(OCC(=O)O)cc3)NC(=O)[C@H](Cc3ccc(F)cc3)NC(=O)CSC[C@@H](C(=O)N[C@@H](CCN)C(=O)NCCOCCOCC(=O)NCCCCCCCCCCC(=O)O)NC(=O)[C@H](CCC(=O)O)NC(=O)[C@H](C(C)C)NC(=O)[C@H](CC3CCCCC3)NC(=O)[C@H](CCN)NC(=O)[C@@H](CC(C)C)NC(=O)[C@H](CCCN)NC(=O)[C@H](Cc3ccc(OCC(=O)O)cc3)NC(=O)[C@H](Cc3ccc(-c4ccccc4)cc3)NC(=O)[C@H](Cc3ccc(OCC(=O)O)cc3)NC2=O)c1 [Compound 3800] ({CH2CO}-[Phe(4-F)]Y(Carboxymethyl)D[Phe(3-Me)]Y(Carboxymethyl)[Bip]Y(Carboxymethyl)[Orn][dL][Dab][Cha]VEC[Dab][AEEA][Aun]-OH; thioether N-14),7.92
5,CCC(C)[C@@H]1NC(=O)[C@H](Cc2ccc(-c3ccccc3)cc2)NC(=O)[C@H](C(C)C)NC(=O)[C@H](Cc2c[nH]c3ccccc23)NC(=O)[C@H](CC(=O)O)NC(=O)[C@H](Cc2ccc(OCC(=O)O)cc2)NC(=O)[C@H](Cc2ccc(F)cc2)NC(=O)CSC[C@@H](C(=O)N[C@@H](CCN)C(=O)NCCOCCOCC(=O)NCCCCCCCCCCC(=O)O)NC(=O)[C@H](CC(=O)O)NC(=O)[C@H](C(C)O)NC(=O)[C@H](CC2CCCCC2)NC(=O)[C@H](CCN)NC(=O)[C@@H](CC(C)C)NC(=O)[C@H](CCCN)NC1=O (stereo partly drawn) [Compound 3802] ({CH2CO}-[Phe(4-F)]Y(Carboxymethyl)DWV[Bip][Ile(3ξ)][Orn][dL][Dab][Cha][Thr(3ξ)]DC[Dab][AEEA][Aun]-OH; thioether N-14),7.44

# Stronger by pIC50, values ahead:
row,pIC50,SMILES
1,8.44,Cc1cccc(C[C@@H]2NC(=O)[C@H](CC(=O)O)NC(=O)[C@H](Cc3ccc(C#N)cc3)NC(=O)[C@H](C(C)O)NC(=O)CSC[C@@H](C(=O)N[C@@H](CCN)C(=O)NCCOCCOCC(=O)NCCCCCCCCCCC(=O)O)NC(=O)[C@H](Cc3cnc[nH]3)NC(=O)[C@H](C(C)(C)O)NC(=O)[C@H](CC3CCCCC3)NC(=O)[C@H](CCN)NC(=O)[C@@H](CC(C)C)NC(=O)[C@H](CCCN)NC(=O)[C@H](Cc3ccc(OCC(=O)O)cc3)NC(=O)[C@H](Cc3ccc(-c4ccccc4)cc3)NC(=O)[C@H](Cc3ccc(OCC(=O)O)cc3)NC2=O)c1 (stereo partly drawn) [Compound 3776] ({CH2CO}-[Thr(3ξ)][Phe(4-CN)]D[Phe(3-Me)]Y(Carboxymethyl)[Bip]Y(Carboxymethyl)[Orn][dL][Dab][Cha][Val(3-OH)]HC[Dab][AEEA][Aun]-OH; thioether N-14)
2,8.47,Cc1cccc(C[C@@H]2NC(=O)[C@H](CC(=O)O)NC(=O)[C@H](Cc3ccc(C(=O)O)cc3)NC(=O)[C@H](C(C)O)NC(=O)CSC[C@@H](C(=O)N[C@@H](CCN)C(=O)NCCOCCOCC(=O)NCCOCCOCC(=O)NCCCCCCCCCCC(=O)O)NC(=O)[C@H](CO)NC(=O)[C@H](C(C)(C)O)NC(=O)[C@H](CC3CCCCC3)NC(=O)[C@H](CCN)NC(=O)[C@@H](CC(C)C)NC(=O)[C@H](CCCN)NC(=O)[C@H](Cc3ccc(C(=O)O)cc3)NC(=O)[C@H](Cc3ccc(-c4ccccc4)cc3)NC(=O)[C@H](Cc3ccc(C(=O)O)cc3)NC2=O)c1 (stereo partly drawn) [Compound 3777] ({CH2CO}-[Thr(3ξ)][Phe(4-COOH)]D[Phe(3-Me)][Phe(4-COOH)][Bip][Phe(4-COOH)][Orn][dL][Dab][Cha][Val(3-OH)]SC[Dab][AEEA][AEEA][Aun]-OH; thioether N-14)
3,8.42,CC[C@@H]1NC(=O)CSC[C@@H](C(=O)N[C@@H](CCN)C(=O)NCCCCCCCCCCC(=O)O)NC(=O)[C@H](CCC(=O)O)NC(=O)[C@H](C(C)(C)O)NC(=O)[C@H](CC2CCCCC2)NC(=O)[C@H](CCN)NC(=O)[C@@H](CC(C)C)NC(=O)[C@H](CCCN)NC(=O)[C@H](Cc2ccc(OCC(=O)O)cc2)NC(=O)[C@H](Cc2ccc(-c3ccccc3)cc2)NC(=O)[C@H](Cc2ccc(OCC(=O)O)cc2)NC(=O)[C@H](Cc2cccc(C)c2)NC(=O)[C@H](CC(=O)O)NC(=O)[C@H](Cc2ccc(OCC(=O)O)cc2)NC1=O [Compound 3794] ({CH2CO}-[Abu]Y(Carboxymethyl)D[Phe(3-Me)]Y(Carboxymethyl)[Bip]Y(Carboxymethyl)[Orn][dL][Dab][Cha][Val(3-OH)]EC[Dab][Aun]-OH; thioether N-14)
4,8.24,CCC[C@@H]1NC(=O)CSC[C@@H](C(=O)N[C@@H](CCN)C(=O)NCCCCCCCCCCC(=O)O)NC(=O)[C@H](CCC(=O)O)NC(=O)[C@H](C(C)(C)O)NC(=O)[C@H](CC2CCCCC2)NC(=O)[C@H](CCN)NC(=O)[C@@H](CC(C)C)NC(=O)[C@H](CCCN)NC(=O)[C@H](Cc2ccc(OCC(=O)O)cc2)NC(=O)[C@H](Cc2ccc(-c3ccccc3)cc2)NC(=O)[C@H](Cc2ccc(OCC(=O)O)cc2)NC(=O)[C@H](Cc2cccc(C)c2)NC(=O)[C@H](CC(=O)O)NC(=O)[C@H](Cc2ccc(OCC(=O)O)cc2)NC1=O [Compound 3795] ({CH2CO}-[Nva]Y(Carboxymethyl)D[Phe(3-Me)]Y(Carboxymethyl)[Bip]Y(Carboxymethyl)[Orn][dL][Dab][Cha][Val(3-OH)]EC[Dab][Aun]-OH; thioether N-14)
5,8.72,CCCC[C@@H]1NC(=O)CSC[C@@H](C(=O)N[C@@H](CCN)C(=O)NCCCCCCCCCCC(=O)O)NC(=O)[C@H](CCC(=O)O)NC(=O)[C@H](C(C)(C)O)NC(=O)[C@H](CC2CCCCC2)NC(=O)[C@H](CCN)NC(=O)[C@@H](CC(C)C)NC(=O)[C@H](CCCN)NC(=O)[C@H](Cc2ccc(OCC(=O)O)cc2)NC(=O)[C@H](Cc2ccc(-c3ccccc3)cc2)NC(=O)[C@H](Cc2ccc(OCC(=O)O)cc2)NC(=O)[C@H](Cc2cccc(C)c2)NC(=O)[C@H](CC(=O)O)NC(=O)[C@H](Cc2ccc(OCC(=O)O)cc2)NC1=O [Compound 3796] ({CH2CO}-[Nle]Y(Carboxymethyl)D[Phe(3-Me)]Y(Carboxymethyl)[Bip]Y(Carboxymethyl)[Orn][dL][Dab][Cha][Val(3-OH)]EC[Dab][Aun]-OH; thioether N-14)
6,8.68,Cc1cccc(C[C@@H]2NC(=O)[C@H](CC(=O)O)NC(=O)[C@H](Cc3ccc(OCC(=O)O)cc3)NC(=O)[C@H](CCN)NC(=O)CSC[C@@H](C(=O)N[C@@H](CCN)C(=O)NCCOCCOCC(=O)NCCCCCCCCCCC(=O)O)NC(=O)[C@H](CCC(=O)O)NC(=O)[C@H](C(C)O)NC(=O)[C@H](CC3CCCCC3)NC(=O)[C@H](CCN)NC(=O)[C@@H](CC(C)C)NC(=O)[C@H](CCCN)NC(=O)[C@H](Cc3ccc(OCC(=O)O)cc3)NC(=O)[C@H](Cc3ccc(-c4ccccc4)cc3)NC(=O)[C@H](Cc3ccc(OCC(=O)O)cc3)NC2=O)c1 (stereo partly drawn) [Compound 3797] ({CH2CO}-[Dab]Y(Carboxymethyl)D[Phe(3-Me)]Y(Carboxymethyl)[Bip]Y(Carboxymethyl)[Orn][dL][Dab][Cha][Thr(3ξ)]EC[Dab][AEEA][Aun]-OH; thioether N-14)
7,8.60,Cc1cccc(C[C@@H]2NC(=O)[C@H](CC(=O)O)NC(=O)[C@H](Cc3ccc(OCC(=O)O)cc3)NC(=O)[C@H](CCN)NC(=O)CSC[C@@H](C(=O)N[C@@H](CCN)C(=O)NCCOCCOCC(=O)NCCCCCCCCCCC(=O)O)NC(=O)[C@H](CC(=O)O)NC(=O)[C@H](C(C)C)NC(=O)[C@H](CC3CCCCC3)NC(=O)[C@H](CCN)NC(=O)[C@@H](CC(C)C)NC(=O)[C@H](CCCN)NC(=O)[C@H](Cc3ccc(OCC(=O)O)cc3)NC(=O)[C@H](Cc3ccc(-c4ccccc4)cc3)NC(=O)[C@H](Cc3ccc(OCC(=O)O)cc3)NC2=O)c1 [Compound 3801] ({CH2CO}-[Dab]Y(Carboxymethyl)D[Phe(3-Me)]Y(Carboxymethyl)[Bip]Y(Carboxymethyl)[Orn][dL][Dab][Cha]VDC[Dab][AEEA][Aun]-OH; thioether N-14)
